The values that follow come from PMC5281058 (Journal of the American Chemical Society, 2015).

Data set [1] addresses T1, adenosine deaminase (ADA) (Homo sapiens, UniProt P00813).
T1 sequence (P00813 1-363): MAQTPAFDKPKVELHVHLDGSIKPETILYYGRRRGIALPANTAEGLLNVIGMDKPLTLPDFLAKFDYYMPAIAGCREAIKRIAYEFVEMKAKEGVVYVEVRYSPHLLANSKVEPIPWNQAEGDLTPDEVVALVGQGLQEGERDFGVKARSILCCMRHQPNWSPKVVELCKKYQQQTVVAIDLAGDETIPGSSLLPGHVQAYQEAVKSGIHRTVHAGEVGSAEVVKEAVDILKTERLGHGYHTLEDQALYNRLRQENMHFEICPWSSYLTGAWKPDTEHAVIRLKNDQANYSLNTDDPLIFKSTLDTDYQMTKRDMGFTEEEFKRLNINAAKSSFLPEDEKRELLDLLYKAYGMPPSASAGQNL
The class given is biochemical. Conditions: for reaction half-life t1/2 of deamination by ADA: calculated assuming a pseudo-first order reaction, real-time absorption; for deamination rate by ADA (in words): real-time continuous measurements, compared with A to I.

In data set [2] the target is T1, adenosine deaminase (ADA). Conditions: conversion of ^thA to ^thI; ref 4b; cited from earlier work.
For data set [3] the following is noted: cited from earlier work.

Structures are written as SMILES. Read-outs that look alike come from different tables or passages of the source.

Consider `Nc1ncnc2c([C@@H]3O[C@H](CO)[C@@H](O)[C@H]3O)scc12` [^thA], for which, in data set [1], the “reaction half-life t1/2 of deamination by ADA” value is 818 s and the “deamination rate by ADA (in words)” value is listed as “sluggish”. For the same compound, the “enzymatic conversion by ADA, times slower compared to adenosine” value in data set [2] was “approximately 20 times”.
Regarding `Nc1ncnc2c([C@@H]3O[C@H](CO)[C@@H](O)[C@H]3O)snc12` [^tzA], in data set [1], the “reaction half-life t1/2 of deamination by ADA” value was 39 s and the “deamination rate by ADA (in words)” value is on record as “at the same rate as it deaminates A to I”.
For the compound `Nc1ncnc2c1ncn2[C@@H]1O[C@H](CO)[C@@H](O)[C@H]1O` [adenosine], the “pKa (N1)” value in data set [3] (reported values for adenosine) was 3.6– 4.2. In addition, the half-life in data set [1] (adenosine deaminase (ADA) enzyme) is 57 s.
For the compound `Nc1nc2c(ncn2[C@@H]2O[C@H](CO)[C@@H](O)[C@H]2O)c(=O)[nH]1` [guanosine], in data set [3] (reported values for guanosine, first value), the “pKa (N7)” value is reported as 3.2–3.3. The “pKa (N1)” value in data set [3] (reported values for guanosine, second value) is 9.2–9.6.
As to `O=c1ccn([C@@H]2O[C@H](CO)[C@@H](O)[C@H]2O)c(=O)[nH]1` [uridine], the “pKa (N3 deprotonation)” value in data set [3] (values reported for N3 deprotonation in uridine) is on record as 9.20–9.25.

Usually half-life stands for how long it takes for the measured level to halve. The low end stands for rapid decline, the high end for slow decline.
